Experimental findings from patent publication US20210275605A1, “COMPOSITIONS COMPRISING BACTERIAL STRAINS” (4D Pharma Research Limited, priority 2018, published 2021) are described below.

Each structure is given as a SMILES string. Values joined by “and” are separate entries in the source; they are usually repeats but may differ in a detail not shown here. Identical values can stand only once.

In test [1] the test system is histone deacetylase. As to the kind of experiment: Histone deacetylase activity in whole HT-29 cells. In kind it is cell-based. The conditions noted are these: pure substance; for total HDAC activity inhibition: whole cells or lysate not distinguished. The method, then: The cell line HT-29 was used because histone deacetylase is present.
Cell free supernatants of stationary phase bacterial cultures were isolated by centrifugation and filtering in a 0.22 uM filter. HT-29 cells were used 3 days' post confluence and stepped down in 1 mL DTS 24 hours prior to commencement of the experiment. The HT-29 cells were challenged with 10% cell free supernatant diluted in DTS and was is left to incubate for 48 hours. […] extraction kit and samples were snap frozen prior to HDAC activity measurement. HDAC activity was assessed fluorometrically using the Sigma Aldrich (UK) kit.
(§1) To investigate which metabolites were responsible for the strain-induced HDAC inhibition, different concentrations of hexanoic acid, valeric acid and sodium butyrate were measured for their HDAC inhibition on whole HT-29 cells and on HT-29 cell lysate.

Test [2] relates to histone deacetylase. As to the kind of experiment: HDAC inhibition on HT-29 cell lysate. In kind it is biochemical. The settings on record: pure substance, different concentrations. The protocol:
as §1

Test [3] has as its system IL-6. As to the kind of experiment: IL-6 secretion by U373 glioblastoma astrocytoma cells (ELISA). In kind it is cell-based, human. The settings on record: for LPS-induced secretion of IL-6 in U373 cells, SCFAs: LPS pre-treatment 1 h, increasing concentrations of pure fatty acid. The protocol: MG U373 is a human glioblastoma astrocytoma derived from a malignant tumour and were purchased from Sigma-Aldrich (cat n. 08061901-1VL). MG U373 human glioblastoma astrocytoma cells were grown in MEM (Sigma Aldrich, cat n. M-2279) supplemented with 10% FBS, 1% Pen Strep, 4 mM L-Glut, 1×MEM Non essential Amino Acid solution and 1× Sodium Pyruvate.
Once grown the MG U373 cells were plated on 24-well plate at 100,000 cells/well. The cells were treated with LPS (1 ug/mL) alone or with 10% of bacteria supernatant from MRx0029 for 24 h. A control was also performed where the cells were incubated in untreated media. Afterwards the cell free supernatants were collected, centrifuged at 10,000 g for 3 min at 4° C. IL-6 was measured using the Human IL-6 ELISA Kit from Peprotech (cat n.#900-K16) according to manufacturer instructions.
Human glioblastoma astrocytoma cell line (U373), were maintained in 25 ml MEME 4.5 g/L D-glucose supplemented with 10% heat-inactivated FBS, 4 mM L-Glutamine, 100 U/ml penicillin, 100 μg/ml streptomycin and 5 μg/ml plasmocin, 1% Non-Essential Amino Acids, 1% Sodium Pyruvate (referred to as full growth media).
Cells were plated in 24-well plates at a density of 100,000 cells/well in 1 ml of full growth media and left to rest at 37° C./5% CO2 for 72 h. On the day of the treatment, the media was removed from each well, cells were rinsed with 0.5 ml wash media (serum free MEME), 0.9 ml stimulation media (MEME media containing 2% FBS) containing 1 μg/ml LPS was added to the appropriate wells and incubated at 37° C. and 5% CO2. After 1 h pre-incubation, cells were removed from CO2 incubator and treated with 100 μl bacteria supernatant. YCFA+ media was used as control. […]
Secretion of IL-6 was analysed using hIL-6 Standard ELISA Kits, according to the manufacturer's protocol in the cell-free supernatants from U373 cells treated as described above. Samples were measured at 405 nm with correction wavelength set at 655 nm on a microplate reader (iMark, Bio-Rad). Raw data were plotted and analysed using GraphPad Prism 7 software. […]

In test [4] the test system is C57BL/6J mice. As to the kind of experiment: DSS-induced colitis mouse model, ileum histology. The test is classed as in vivo. The settings on record: for COLITIS SCORING mean ± SEM: group mean, n = 9, 3% DSS; for COLITIS SCORING mean ± SEM / COLITIS SCORING (sum) / Depletion of goblet cells score / Edema score / Erosion (epithelial cell damage) score / Leucocytes Infiltration score: Day 7; for COLITIS SCORING (sum) / Depletion of goblet cells score / Edema score / Erosion (epithelial cell damage) score / Leucocytes Infiltration score: ileum histology, individual mouse, 3% DSS. The method, then:
The objective of this study was to determine the prophylactic efficacy of MRX029 in a DSS-induced colitis mouse model, upon repeated oral administration.
Tacrolimus was dosed at 1 mg/kg/day
Valproic acid was dosed at 200 mg/kg/day
PBS, YCFA and bacterial cultures were dosed at 200 μL/day
PBS, YCFA and live bacteria were be daily administered per os (PO) under a fixed volume of 200 μL/mouse
Tacrolimus will be daily administered subcutaneously (SC) under a volume of 10 mL/kg Valproic acid will be daily administered per os (PO) under a volume of 10 mL/kg
Each of sixty three, 6 week old healthy male C57BL/6J mice were obtained from Charles River (France) and individually identified and labelled with a specific code. Each treatment group (9 animals/group) were housed in three different cages.
Animals were dosed by extracting the dosing aliquot from the Hungate tube using a syringe and a 0.8×40 mm needle injected through the septum. The Hungate tube was mixed by inversion before the dosing aliquot was extracted. The first 50-100 μL through the gavage needle and each mouse was dose with 200 μL of culture by oral gavage
Days −7 to Day −1: Treatment with bacteria and reference substances according the treatment table above • Once daily oral administration of PBS, YCF A or Bacteria—200 μL per mouse • Once daily oral administration of Valproic acid at 200 mg/kg/day under a volume of 10 mL/kg
From Day O to Day+7: DSS administration • Administration of 3% DSS in the drinking water
From Day O to Day+6: Treatment with bacteria and reference substances • Once daily oral administration of PBS, YCFA or Bacteria—200 μL per mouse • Once daily oral administration of Valproic acid-200 mg/kg in sterile distilled water—10 mL/kg • Once daily SC administration of Tacrolimus—1 mg/kg in sterile 1% Tween80, 0.9% NaCl −10 mL/kg
Day +7: Sacrifice of all groups and tissue harvesting • Euthanasia of animals was performed under gas anesthesia (lsoflurane) followed by exsanguination and cervical dislocation. Euthanasia methods used are those recommended for mice and rats by European directive 20 I 0/63/CE and the procedure describing euthanasia methods was approved by IACUC. • Laparotomy and ileum harvesting, just upstream of the caecum (from 0.5 cm and on)—all tissue harvested from exactly the same area between all mice: • 1.5 cm swiss-rolled ileum was harvested for histology, the closest to the caecum
Ileum Swiss-rolls specimens were embedded in paraffin and sections of 5 μm thickness were cut and mounted on SuperFrost Ultra plus glass slides. HP (Hematoxylin-Phloxin) staining & AB-PAS (Alcian Blue-Periodic Acid Schiff) staining were performed to visualize histomorphologic changes. A scoring based on edema, erosion, loss of crypts/goblet cells and infiltrates was established on each animal, using the criteria in the following table: […]

For `CCCC(=O)[O-].[Na+]` [sodium butyrate], the “HDAC inhibition on whole HT-29 cells” value in test [1] (different concentrations) is reported as “significant (P<0.05) inhibition of HDAC activity”. The “total HDAC activity inhibition” value in test [1] was “significant HDAC inhibition”. In test [2], the “HDAC inhibition on HT-29 cell lysate” value is listed as “significant (P<0.05) inhibition of HDAC activity”. Also, in test [3], the “LPS-induced secretion of IL-6 in U373 cells, SCFAs” value is on record as “inhibited LPS-induced secretion of IL-6 in U373 cells in a concentration-dependent manner”. In addition, the “basal IL-6 secretion in U373 cells” value in test [3] (absence of LPS) is given as “decreased the basal level of IL-6”.
As to `CCCC(CCC)C(=O)O` [Valproic acid, Valproic Acid], in test [4], the “COLITIS SCORING mean ± SEM” value is given as 0.67; the “COLITIS SCORING (sum)” value was 2 (2×) and 1 (2×) and 0 (5×); the “Depletion of goblet cells score” value is recorded as 0; the Edema score was 0. For the same compound, in test [4], the “Erosion (epithelial cell damage) score” value is on record as 0; the “Leucocytes Infiltration score” value was 2 (2×) and 1 (2×) and 0 (5×).
`C=CC[C@@H]1/C=C(\C)C[C@H](C)C[C@H](OC)[C@H]2O[C@@](O)(C(=O)C(=O)N3CCCC[C@H]3C(=O)O[C@H](/C(C)=C/[C@@H]3CC[C@@H](O)[C@H](OC)C3)[C@H](C)[C@@H](O)CC1=O)[C@H](C)C[C@@H]2OC` [Tacrolimus]: the “leukocyte infiltration in the ileum, group result” value in test [4] (DSS animals versus vehicle DSS groups) is listed as “reduced leukocyte infiltration comparable to controls”. Further, in test [4], the “COLITIS SCORING mean ± SEM” value is 0.44; the “COLITIS SCORING (sum)” value is 0 (6×) and 2 and 1 (2×); the “Depletion of goblet cells score” value is given as 0; the Edema score was found to be 0. In test [4], the “Erosion (epithelial cell damage) score” value is 0; the “Leucocytes Infiltration score” value is 0 (6×) and 2 and 1 (2×).
As to `CCCCCC(=O)O` [hexanoic acid], the “total HDAC activity inhibition” value in test [1] is recorded as “did show significant inhibitory activity”. In addition, in test [3], the “LPS-induced secretion of IL-6 in U373 cells, SCFAs” value was “did not inhibit IL-6 secretion”.
Take `CCCCC(=O)O` [valeric acid]: the “total HDAC activity inhibition” value is recorded as “significant HDAC inhibition” in test [1] and “inhibited total HDAC activity” in test [1] (listed as Valeric acid).
